This note sets out measurements from patent publication US6964959B2, “Use of a methylol-containing compound to treat tumors” (Carter Wallace, Inc., priority 1999, dated 2005).

“Also recorded” adds a separate entry of the source.

One series concerns SKOV-3. Briefly: Annexin-V FITC binding (phosphotidylserine externalization), SKOV-3. Format: cell-based, human. The settings on record: 24 h exposure. The protocol:
Three×10^5 cells were seeded in plastic tissue culture flasks. […] Control cultures received an appropriate volume of Kollidine-17P. After an additional 24 h, cells were harvested and phosphotidylserine externalization determined by assessing Annexin-V FITC binding using cytofluorometric techniques. Each bar represents the mean±SE of four determinations. **p≦0.01, ***p≦0.001
Cell membrane phosphotidylserine externalization, as a reflection of the potential induction of apoptosis, was assessed by flow cytometry methods using the ApoAlert® Annexin-V/FITC assay kit. Briefly, 1×10^6 cells were incubated for 24 h in tissue culture medium containing serum. […] Control cultures received 5% Kollidon 17PF alone. Twenty-four hours later, all cells were harvested by trypsinization. The harvested cells were resuspended in 200 μl of binding buffer and then incubated for 5-15 min in a solution containing 1 μg/ml Annexin-V FITC at room temperature in the dark. The cells were then analyzed to quantitate Annexin-V binding by cytofluorometric techniques that utilized FACScan using the ModFit LT program with statistical analysis as described above.

Series [1] has as its system PARP. Briefly: Western-blot analysis of PARP cleavage, NIH-3T3 cells. Format: cell-based, murine. The settings on record: 24 h exposure to 50 or 100 μM. The method, then: (§1) Two×10^6 cells were seeded in 150 cm^2 tissue culture flasks. […] After an additional twenty-four hours, cells were harvested, cell number determined, and aliquots derived from equal cell numbers generated from each exposure condition. Total proteins from these whole cell lysates were separated by SDS-PAGE and transferred to nitrocellulose filters. Filters were then immunoblotted to detect intact PARP protein and cleavage fragments by using the clone C-2-10 mouse monoclonal anti-PARP antibody (Zymed Laboratories, San Francisco, Calif.). The resulting protein-antibody complexes were visualized by chemiluminescence techniques.
(§2) Western-blot analysis was used to assess of PARP cleavage. Two×10^6 cells were seeded into separate 75 cm^2 tissue culture flasks containing 20 ml of tissue culture media plus serum. […] Twenty-four hours after the addition of Taurolidine, cells were harvested, cell number determined, and aliquots containing an equal cell number were generated from each exposure condition. Total proteins from whole cell lysates generated from these aliquots were separated by SDS-PAGE and electrotransferred to nitrocellulose filters. Filters were then processed to detect intact PARP protein and cleavage fragments by using the clone C-2-10 mouse monoclonal anti-PARP antibody (Zymed Laboratories, San Francisco, Calif.). […]

The subject of another series is glioblastoma multiforma. Briefly: Clinical use in patients with advanced recurrent glioblastoma multiforma. Format: in vivo, human. The protocol: Four patients, which were diagnosed with advanced recurrent glioblastoma multiforma, were treated with taurolidine. The prognosis for this group of patients was determined to be approximately 8 weeks of survival.
In series [2] the test system is Bcl2-over expressing HL-60 cells. Briefly: Apoptosis induction in Bcl2-over expressing HL-60 cells. Format: cell-based, human. The text has this: Human leukemia HL-60 cells, which were genetically-engineered to resist apoptotic induction, were induced to apoptosis independently (downstream) of the bcl-2/bax (anti-death gene) point in the signal transduction cascade.

The next series deals with human tumor cell lines. Briefly: Tumor cell killing and apoptosis in culture. Format: cell-based.
Series [3] has as its system PA-1. The series can be described thus: Cell growth inhibition, PA-1 ovarian tumor cells. Format: cell-based. Conditions: Homo sapiens, PA-1, 72 h, PA-1 (ovary); 3 d exposure; cell number. The method, then:
One ml of this cell suspension was added to each well of a 12 well cell culture plate that contained 3 ml of appropriate media plus serum. […] Control wells received 40 μl of 5% Kollidon 17PF alone. Seventy-two hours later, all cells were harvested by trypsinization and cell number determined electronically using a Coulter Model Z1 particle counter (Coulter Corp., Miami, Fla.) to assess cell growth inhibition. Each experiment was performed in duplicate and repeated a minimum of three times.
Cells were seeded at a density of 1-5×10^4 cells in each well of a 6 well tissue culture flask. […] After three days, cells were harvested by trypsinization and cell number determined electronically. Cell growth inhibition was determined by comparison to non-Taurolidine exposed control cultures. The IC50 was calculated as the concentration required to inhibit cell number by 50%.

In the next series the test system is PA1 human ovarian cells. The series can be described thus: DNA fragmentation, PA1 human ovarian cells. Format: cell-based. The source says:
This DNA fragmentation was not observed in normal 3T3 cells.

Series [4] relates to PA-1. Briefly: Flow cytometry cell cycle distribution / DNA debris, PA-1. Format: cell-based, human. The method, then: Three×10^5 cells were seeded in plastic tissue culture flasks. […] Control cultures received an appropriate volume of Kollidine-17P. […] The percentage of DNA debris in the sub-G0/G1 region was assessed using cytofluorometric techniques.
For flow cytometry studies, 1×10^6 PA-1, SKOV-3, or NIH-3T3 cells were incubated for 24 h in appropriate media containing serum. […] Control cultures for each cell line were incubated in media containing 40 μl of 5% Kollidon 17PF alone. Forty-eight hours later, all cells were harvested by trypsinization and prepared for cytofluorometric analysis by standard methods. For example, harvested cells were resuspended in ice cold phosphate-buffered saline at a final cell density of 2×10^6 cells/ml. The cells then were stained for 30 min at room temperature in the dark with a solution of 0.05 mg/ml propidium iodide, 0.6% Igepal, and 1% sodium citrate. Flow cytometry was performed by FACScan (Becton Dickinson, Plymouth, England) using the ModFit LT program (Becton Dickinson). Statistical analysis was performed with the Kruskal Wallis non-parametric ANOVA test followed by Dunn's multiple comparisons test using Instat.
Three×10^5 cells were seeded in plastic tissue culture flasks. […] Control cultures received an appropriate volume of Kollidine-17P. After an additional 48 h, cells were harvested, stained with propidium iodide, and cell cycle distribution assessed using cytofluorometric techniques. Each value represents the percentage of cells in the noted cell cycle phases and is the mean±SEM of three determinations.

Series [5] has as its system human ovarian tumor cells. The series can be described thus: Growth of established human ovarian tumor cell colonies. Format: cell-based. The settings on record: 24-hour exposure to 50 μM; discrete colonies. The method, then: Parallel studies were carried out to assess whether disruption of cell adhesion played a role in the cytotoxic activity.
Series [6] relates to PARP. The series can be described thus: Western-blot analysis of PARP cleavage, PA-1 cells. The settings on record: 24 h exposure to 50 or 100 μM. Format: cell-based, human. The protocol: as §1, §2
Series [7] deals with PARP. Briefly: Western-blot analysis of PARP cleavage, SKOV-3 cells. Format: cell-based, human. The settings on record: 24 h exposure to 50 or 100 μM. The protocol: as §1, §2
Series [8] is described as follows: Clinical tolerability in ovarian tumor and glioblastoma patients. The settings on record: i.p. lavage after surgery for recurrent ovarian tumors; systemic in glioblastoma. Format: in vivo, human. The method, then:
Taurolidine was administered by i.p. lavage immediately following surgery for removal of recurrent ovarian tumors. For patients with glioblastoma, Taurolidine was administered systemically.
Taurolidine was administered by i.p. lavage immediately following surgery for removal of recurrent ovarian tumors. For patients with glioblastoma, taurolidine was administered systemically.

Series [9] has as its system MDR-transfected glioblastoma cells. The series can be described thus: Cytotoxicity in MDR-transfected glioblastoma cells. Conditions: dose of 50 μM.
Text: The neoplastic cell lines used in the survey were standard tumor cell lines, e.g., PA1 human ovarian cell line, SKOV3 human ovarian cell line, HT29 human colon tumor cell line, DU145 human prostate tumor cell line, U251 human glioblastoma cell line, U251-MDR human glioblastoma cell line transfected with DNA encoding MDR, T98G human glioblastoma cell line, SP-1 human leukemia cell line, and Daudi human leukemia cell line.
Glioblastoma cells were transfected with a gene encoding multiple drug resistance (MDR).

As for `O=S1(=O)CCN(CN2CCS(=O)(=O)NC2)CN1` [Taurolidine, Bis-(1,1-dioxoperhydro-1,2,4-thiadiazinyl-4)methane], the “increase in Annexin-V binding (Annexin-V positive cells)” value with SKOV-3 is 3 fold. The PARP cleavage entry in the series on PARP [1] is “little evidence of this proteolytic event”; in the series on PARP [1] (listed as taurolidine), “PARP cleavage was not evident”; in the series on PARP [6], “induced PARP cleavage; also recorded: resulted in PARP cleavage”; in the series on PARP [7], “induced PARP cleavage; also recorded: resulted in PARP cleavage”. Also, the “patients in whom the tumor mass decreased or stayed the same” value in the series on glioblastoma multiforma (20 g infused intravenously over 6 hours twice a week, at least one 5 week regimen, four patients) is given as 3 out of the 4. Further, in the series on glioblastoma multiforma (at 14 weeks after the initiation of therapy, prognosis approximately 8 weeks), the survival result is on record as “each of the patients remains alive”. In addition, the induction of apoptosis result in series [2] is “capable of inducing apoptosis, but with a delayed onset”. Moreover, the “incubation time after which apoptosis of tumor cells is induced” value in the series on human tumor cell lines (in culture) was “as little as one hour”. In addition, in the series with human tumor cell lines (ovarian, breast, brain, colon, prostate, urinary bladder, lung, melanomas, mesotheliomas, laryngeal carcinomas, leukemias, lymphomas), the “number of different human tumor cell lines killed” value is given as “at least 28”. The same compound displayed an IC50 in the series on PA-1 [3] of roughly 10 µM. For the same compound, the DNA fragmentation entry in the series with PA1 human ovarian cells (PA1, 24-hour exposure) is given as “induced a high degree of DNA fragmentation”. For the same compound, in the series with PA1 human ovarian cells (ovarian tumor cells, 50 μM), the “DNA fragmentation by agarose-gel electrophoresis” value is “overt DNA fragmentation”. In addition, the “cell cycle kinetics and distribution” value in the series on PA-1 [4] (PA1, 24-hour exposure) is “significantly reduced the percentage of cells in both the S- and G2/M-phases”. In addition, in the series with PA-1 [4] (PA-1, 48 h exposure, up to 100 μM), the “effect on cell cycle distribution” value is “little effect on the cell cycle; also recorded: little effect on cell cycle distribution”. Besides, the “DNA debris in the sub-G0/G1 region” value with PA-1 [4] (PA-1, 48 h exposure, 25-100 μM) is listed as “significantly increased DNA debris; also recorded: resulted in the appearance of DNA debris”. Also, the “cytotoxic effect against the growth of established tumor cells” value in series [5] is “significant cytotoxic effect”. For the same compound, the tolerability in patients entry in [8] is reported as “well tolerated”. Further, the cytotoxicity result in series [9] is reported as “Significant cytotoxicity”.
